Measurements as given in patent publication US12318364B2, “Isoflavonoid compositions and methods for the treatment of cancer” (Aardvark Therapeutics, Inc., priority 2010, dated 2025).
Values after ≈ are worked out from the molar mass of the structure shown.

Assay: Solubility limit of compound d-4 in aqueous Captisol (SBE7-β-CD) solution
Assay type: physicochemical
Settings: at 25° C., 20% Captisol® in water

solubility limit: 27.9 mg/mL (≈ 83.4 mM)
Compound: Oc1ccc([C@H]2c3ccc(O)cc3OC[C@H]2c2ccc(O)cc2)cc1 (relative stereo) [Compound d-4, d-cis-3-(4-hydroxyphenyl)-4-(4-hydroxyphenyl)chroman-7-ol]
